In patent publication US10905123B2, “Herbicidal compounds” (Syngenta Participations AG, priority 2015, dated 2021):

Experiments:
Type in all cases: in vivo
Settings in all cases: Rate 1000 g/ha; evaluated after 13 days
[1] = system: Echinochloa crus-galli (ECHCG); experiment: B2 post-emergence herbicidal activity
Experimental: (§1) Seeds of a variety of test species were sown in standard soil in pots: Triticum aestivium (TRZAW), Oryza sativa (ORYSA), Avena fatua (AVEFA), Alopecurus myosuroides (ALOMY), Echinochloa crus-galli (ECHCG), Lolium perenne (LOLPE). After 8 days cultivation (post-emergence) under controlled conditions in a glasshouse (at 24/16° C., day/night; 14 hours light; 65% humidity), the plants were sprayed with an aqueous spray solution derived from the formulation of the technical active ingredient in acetone/water (50:50) solution containing 0.5% Tween 20 (polyoxyethelyene sorbitan monolaurate, CAS RN 9005-64-5). The test plants were then grown in a glasshouse under controlled conditions (at 24/16° C., day/night; 14 hours light; 65% humidity) and watered twice daily. After 13 days, the test was evaluated (5=total damage to plant; 0=no damage to plant).

[2] = system: Oryza sativa (ORYSA); experiment: B2 post-emergence herbicidal activity
Experimental: as §1

[3] = system: Alopecurus myosuroides (ALOMY); experiment: B2 post-emergence herbicidal activity
Experimental: as §1

[4] = system: Lolium perenne (LOLPE); experiment: B2 post-emergence herbicidal activity
Experimental: as §1

[5] = system: Triticum aestivium (TRZAW); experiment: B2 post-emergence herbicidal activity
Experimental: as §1

[6] = system: Avena fatua (AVEFA); experiment: B2 post-emergence herbicidal activity
Experimental: as §1

[7] = system: Echinochloa crus-galli (ECHCG); experiment: B1 pre-emergence herbicidal activity
Experimental: as §1, with “After” for “After 8 days”, “for one day (pre-emergence)” for “(post-emergence)”

[8] = system: Oryza sativa (ORYSA); experiment: B1 pre-emergence herbicidal activity
Experimental: as §1, with “After” for “After 8 days”, “for one day (pre-emergence)” for “(post-emergence)”

[9] = system: Alopecurus myosuroides (ALOMY); experiment: B1 pre-emergence herbicidal activity
Experimental: as §1, with “After” for “After 8 days”, “for one day (pre-emergence)” for “(post-emergence)”

[10] = system: Lolium perenne (LOLPE); experiment: B1 pre-emergence herbicidal activity
Experimental: as §1, with “After” for “After 8 days”, “for one day (pre-emergence)” for “(post-emergence)”

[11] = system: Triticum aestivium (TRZAW); experiment: B1 pre-emergence herbicidal activity
Experimental: as §1, with “After” for “After 8 days”, “for one day (pre-emergence)” for “(post-emergence)”

[12] = system: Avena fatua (AVEFA); experiment: B1 pre-emergence herbicidal activity
Experimental: as §1, with “After” for “After 8 days”, “for one day (pre-emergence)” for “(post-emergence)”

SMILES | Control of ECHCG after post-emergence application (damage score 0-5) [1] | Control of ORYSA after post-emergence application (damage score 0-5) [2] | Control of ALOMY after post-emergence application (damage score 0-5) [3] | Control of LOLPE after post-emergence application (damage score 0-5) [4] | Control of TRZAW after post-emergence application (damage score 0-5) [5] | Control of AVEFA after post-emergence application (damage score 0-5) [6] | Control of ECHCG after pre-emergence application (damage score 0-5) [7] | Control of ORYSA after pre-emergence application (damage score 0-5) [8] | Control of ALOMY after pre-emergence application (damage score 0-5) [9] | Control of LOLPE after pre-emergence application (damage score 0-5) [10] | Control of TRZAW after pre-emergence application (damage score 0-5) [11] | Control of AVEFA after pre-emergence application (damage score 0-5) [12]
CN(C(=O)OC(C)(C)C)c1c(Cl)c(-c2cccnc2)nn1C [Compound A39] | 4 | 1 | 2 | 3 | 0 | 1 | 3 | 1 | 0 | 0 | 0 | 4
Cc1nn(-c2cncnc2)cc1N(C)C(=O)NC1CCCCC1 [Compound A44] | 1 | 0 | 1 | 2 | 0 | 3 | 1 | 1 | 0 | 1 | 1 | 1
CN(C(=O)Oc1ccccc1)c1cn(-c2cncc(F)c2)nc1C(F)(F)F [Compound A46] | 2 | 0 | 0 | 1 | 0 | 2 | 0 | 0 | 0 | 0 | 0 | 0
CCOC(=O)N(C)c1cn(-c2cncc(F)c2)nc1C(F)(F)F [Compound A47] | 4 | 0 | 1 | 0 | 1 | 2 | 1 | 0 | 0 | 0 | 0 | 0
CN(C(=O)OC(C)(C)C)c1cn(-c2cncc(F)c2)nc1C(F)(F)F [Compound A48] | 4 | 1 | 1 | 2 | 1 | 3 | 3 | 1 | 1 | 1 | 1 | 0
CN(C(=O)N(C)C(C)(C)C)c1cn(-c2cncnc2)nc1C(F)(F)F [Compound A51] | 2 | 0 | 1 | 1 | 2 | 2 | 1 | 1 | 0 | 0 | 0 | 0
Cc1nn(-c2cncnc2)cc1N(C)C(=O)Nc1ccc(C#N)cc1 [Compound A52] | 0 | 0 | 0 | 0 | 0 | 0 | 0 | 0 | 0 | 0 | 0 | 0
Cc1nn(-c2cncnc2)cc1N(C)C1=NCCCCO1 [Compound A53] | 0 | 0 | 0 | 1 | 0 | 0 | 0 | 0 | 0 | 0 | 0 | 0
C=CCN(C(=O)OC(C)(C)C)c1cn(-c2cncc(F)c2)nc1C [Compound A54] | 1 | 0 | 1 | 1 | 0 | 1 | 0 | 0 | 0 | 0 | 0 | 0
CCN(C(=O)OC(C)(C)C)c1cn(-c2cncc(F)c2)nc1C(F)(F)F [Compound A55] | 0 | 0 | 0 | 0 | 0 | 0 | 0 | 0 | 0 | 0 | 0 | 0
